Reference: patent publication US11072632B2, “Inhibitors of 17β-HSD1, 17β-HSD3 and 17β-HSD10” (UNIVERSITÉ LAVAL, priority 2011, dated 2021)
Where “and” joins values, the source holds several entries; their conditions need not be identical. Identical values can stand only once.

Key:
17β-HSD10 [1] = biological target: T1, 17β-HSD10 (Homo sapiens, UniProt Q99714); assay: Inhibition of 17β-HSD10 in stably transfected HEK-293 whole cells (E2 into E1); format: cell-based
T1 construct: expressed in transfected cells
T1 sequence (Q99714 1-261): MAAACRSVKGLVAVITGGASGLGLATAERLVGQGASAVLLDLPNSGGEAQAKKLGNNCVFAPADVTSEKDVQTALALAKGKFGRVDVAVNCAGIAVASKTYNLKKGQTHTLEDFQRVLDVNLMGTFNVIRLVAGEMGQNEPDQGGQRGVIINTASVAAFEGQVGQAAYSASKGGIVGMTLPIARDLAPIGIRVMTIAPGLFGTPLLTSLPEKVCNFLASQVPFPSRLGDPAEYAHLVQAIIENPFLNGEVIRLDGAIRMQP

17β-HSD10 [2] = biological target: T1, 17β-HSD10; conditions: read-out: Km of the enzyme for E2 as a substrate; cited from earlier work
[3] = system: ovariectomized (OVX) mice; assay: In vivo estrogenic activity (uterotrophic assay) in OVX mice; design: species or system mouse; conditions: OVX mice, s.c. BID, 7 days
Protocol: The mice were fed rodent chow and tap water ad libitum. The animals were ovariectomized (OVX) under isoflurane-anaesthesia via bilateral flank incisions and randomly assigned to groups (5 animals by group). Mice in the OVX control group received the vehicle alone (8% ethanol-0.4% methylcellulose) during the 7-day period. The possible estrogenic activity of tested compounds was evaluated after their administration by subcutaneous (s.c.) injection [1, 10 and 100 μg/kg, s.c., twice daily (BID)] as suspension in 8% ethanol-0.4% methylcellulose to OVX female mice for 7 days. On day 8, the mice were sacrificed by cervical dislocation. The uteri and vagina were rapidly removed, freed from fat and connective tissue and weighed. Results are the means±SEM of 5 mice per group.

17β-HSD3 [4] = biological target: T2, 17β-HSD3 (Homo sapiens, UniProt P37058); assay: Inhibition of 17β-HSD3 in intact HEK-293 cells; format: cell-based
T2 construct: expressed in transfected cells; host or cells: HEK-293 (homogenate)
T2 sequence (P37058 1-310): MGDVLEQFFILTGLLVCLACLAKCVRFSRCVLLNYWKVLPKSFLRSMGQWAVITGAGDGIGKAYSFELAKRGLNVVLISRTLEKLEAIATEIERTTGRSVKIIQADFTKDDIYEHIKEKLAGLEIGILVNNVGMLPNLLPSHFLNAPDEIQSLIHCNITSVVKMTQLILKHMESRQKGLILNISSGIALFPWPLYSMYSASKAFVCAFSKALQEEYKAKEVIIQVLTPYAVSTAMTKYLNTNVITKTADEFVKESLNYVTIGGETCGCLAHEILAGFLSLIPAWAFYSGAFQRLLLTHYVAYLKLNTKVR

17β-HSD3 [5] = biological target: T2, 17β-HSD3; assay: Inhibition of 17β-HSD3 in homogenated HEK-293 cells; format: biochemical
[6] = system: androgen-sensitive (AR+) Shionogi cells; assay: Proliferative (androgenic) activity on androgen-sensitive Shionogi cells; format: cell-based; conditions: 0.1 and 1 μM
Protocol: The proliferative (androgenic) activity was determined using androgen-sensitive Shionogi cells following a known literature procedure.^54 Inhibitors and reference compounds were tested at two concentrations (0.1 and 1.0 μM). The androgenicity was reported as % cell proliferation (versus the control). The basal cell proliferation (control) was fixed at 100%.

T-47D cells = assay: Inhibition of E1-stimulated T-47D cell proliferation; format: cell-based, human; conditions: E1 0.1 nM, no inhibitor; control 100%
Protocol: Quantification of cell growth was determined by using CellTiter 96®Aqueous Solution Cell Proliferation Assay (Promega, Nepean, ON, Canada) following the manufacturer's instructions. T-47D cells were resuspended with the medium supplemented with insulin (50 ng/mL) and 5% dextran-coated charcoal treated FBS rather than 10% FBS to remove remaining hormones. Aliquots (100 μL) of the cell suspension were seeded in 96-well plates (3000 cells/well). After 48 h, the medium was changed with a new one containing an appropriate concentration of products to be tested and was replaced every 2 days. Cells have grown either in absence or presence of the compounds for 7 days. To determine the proliferative (estrogenic) activity, the estrogen-sensitive T-47D cells were grown in absence (basal cell proliferation was fixed as 100%) or presence of compounds to be tested at 0.5 to 10 μM. The potent estrogen E2 was used as a reference control. […] The cell proliferation without E1±inhibitor (control) was fixed as 100%. To determine the potential antiestrogenic activity of inhibitor Compound V, the T-47D (ER^+) cells were grown in the presence of estrogen E2 (0.1 nM) and pure antiestrogen EM-139 (0.5 μM) or inhibitor Compound V (0.5 μM). The cell proliferation without E2 and tested compounds (control) were fixed as 100%.

T-47D tumors = assay: Inhibition of E1-stimulated T-47D tumor growth in nude OVX mice (xenograft); format: in vivo, mouse
Protocol: Female OVX BALB/c athymic nude mice weighing approximately 20 g were obtained from Charles-River, Inc. (St-Constant, Qc., Canada). The animals were housed 5 per cage. […] T-47D tumor growth was stimulated using 0.1 μg of E1 s.c. per mouse per day for 15 days. From day 16, animals with tumors were randomized in function of tumor volume and separated into three groups. Group 1 (control mice) was treated s.c. with 100 μL of vehicle alone (8% EtOH/92% PG) per mouse per day. Group 2 (E1 0.1 μg) was treated with E1 (0.1 μg/day, s.c. per mouse) during 32 days. Group 3 (E1 0.1 μg+Compound V 250 μg) was treated with E1 (0.1 μg/day) and Compound V (250 μg/day) per mouse in a combined s.c. injection for 32 days. The mice were weighed at start and volumes of tumors were determined by external caliper twice a week and the greatest longitudinal diameter (length) and the greatest transverse diameter (width) were determined. Tumor volume based on caliper measurements was calculated by the modified ellipsoidal formula: Tumor volume=½(length×width^2) (Jensen M M, Jorgensen J T, Binderup T, Kjaer A. Tumor volume in subcutaneous mouse xenografts measured by microCT is more accurate and reproducible than determined by 18F-FDG-microPET or external caliper. BMC Med Imaging 2008; 8:16). At the end of the studies the mice were terminally anaesthetized, final body weights and tumor sizes were determined. Uteri and vagina were removed, excised of fat and weighed (Day J M, Foster P A, Tutill H J, Parsons M F, Newman S P, Chander S K, et al. 17beta-hydroxysteroid dehydrogenase type 1, and not type 12, is a target for endocrine therapy of hormone-dependent breast cancer. Int J Cancer 2008; 122:1931-40; Husen B, Huhtinen K, Poutanen M, Kangas L, Messinger J, Thole H. Evaluation of inhibitors for 17beta-hydroxysteroid dehydrogenase type 1 in vivo in immunodeficient mice inoculated with MCF-7 cells stably expressing the recombinant human enzyme. Mol Cell Endocrinol 2006; 248:109-13; Husen B, Huhtinen K, Saloniemi T, Messinger J, Thole H H, Poutanen M: Human hydroxysteroid (17-beta) dehydrogenase 1 expression enhances estrogen sensitivity of MCF-7 breast cancer cell xenografts. Endocrinology 2006; 147:5333-9; Messinger J, Hirvela L, Husen B, Kangas L, Koskimies P, Pentikainen O, et al. New inhibitors of 17beta-hydroxysteroid dehydrogenase type 1. Mol Cell Endocrinol 2006; 248:192-8).

[7] = system: ovariectomized (OVX) BALB/c mice; assay: In vivo estrogenicity assay in OVX mice (uterus, vagina weight); design: species or system mouse; conditions: OVX mice, s.c., 0.02 μg/mouse/day
Protocol: Female ovariectomized (OVX) BALB/c mice weighing approximately 20 g were obtained from Charles-River, Inc. (St-Constant, Qc., Canada). The animals were housed 5 per cage. Groups of 5 mice were treated with E1 (0.02 μg in 8% EtOH/92% PG) or 17β-HSD1 inhibitor at 10, 50 and 250 μg (0.1 mL s.c.) daily for 7 days. Animals were killed 24 h after administration of the last dose of compound and uteri and vagina were removed, excised of fat and weighed. Total body weights of mice were also recorded.

C[C@]12CC[C@@H]3c4ccc(O)cc4CC[C@H]3[C@@H]1CC[C@@H]2O [17β-E2 (1), 17β-estradiol]
IC50 (17β-HSD10 [1]): > 10000 nM
Km (17β-HSD10 [2]): 43 µM
uterine weight ([3]; 1 μg/kg): 125 mg
uterine weight ([3]; 10 μg/kg): 155 mg
uterine weight ([3]; 100 μg/kg): 160 mg

CC1CN(S(=O)(=O)c2ccccc2C(F)(F)F)C(C)CN1CC1(O)CCC2(C)C(CCC3C4CCC(=O)C4(C)CCC32)C1 (stereo not drawn) [Compound 15b, (3α,5α)-3-{[(2ξ,5ξ)-2,5-dimethyl-4-{[2-(trifluoromethyl)phenyl]sulfonyl}piperazin-1-yl]methyl}-3-hydroxyandrostan-17-one]
Intact cells (%) (0.1 μM) (17β-HSD3 [4]; Table 3, 0.1 μM): 84%
IC50 (17β-HSD3 [4]; intact HEK-293 cells overexpressing 17β-HSD3, [14C]-Δ4-dione 50 nM): 6 nM and 5 nM
fold better inhibitor than reference compound 5 (17β-HSD3 [4]; ratio of IC50 values): 8 fold
fold better than unlabelled Δ4-dione used as inhibitor (17β-HSD3 [4]; ratio of IC50 values): 56 fold
Homo (%) (0.01 μM) (17β-HSD3 [5]; Table 3, 0.01 μM): 55%
Homo (%) (0.1 μM) (17β-HSD3 [5]; Table 3, 0.1 μM): 92%
proliferative (androgenic) effect [6]: did not stimulate the proliferation of AR^+ cells
Inhibition (%) at 1 μM (17β-HSD10 [1]; [14C]-E2 (1 μM) into [14C]-E1, intact HEK-293 cells, 1 μM): 30%

C[C@]12CC[C@@]3(C[C@@H]1CC[C@@H]1[C@@H]2CC[C@]2(C)C(=O)CC[C@@H]12)CN(Cc1ccccc1)C(=O)O3 [Compound 17a, (3R,5S,8R,9S,10S,13S,14S)-3′-benzyl-10,13-dimethyltetradecahydro-2′H spiro[cyclopenta[α]phenanthrene-3,5′-[1,3]oxazolidine]-2′,17(2H)-dione]
inhibition at 0.1 µM (17β-HSD3 [4]; HEK293, 1 h, read-out: Intact cells (%) (0.1 μM), Table 4, 0.1 μM): 44%
inhibition at 0.01 µM (17β-HSD3 [5]; read-out: Homo (%) (0.01 μM), Table 4, 0.01 μM): 21%
inhibition at 0.1 µM (17β-HSD3 [5]; read-out: Homo (%) (0.1 μM), Table 4, 0.1 μM): 86%
inhibition at 1 µM (17β-HSD3 [5]; read-out: Homo (%) (1.0 μM), Table 4, 1.0 μM): 93%
proliferative (androgenic) effect [6]: did not stimulate the proliferation of AR^+ cells

C[C@]12CC[C@@H]3c4ccc(O)cc4CC[C@H]3[C@@H]1CCC2=O [Compound E1, estrone, reference compound]
cell growth induced by E1 alone (T-47D cells): 250%
tumor size, % of initial size (T-47D tumors; E1 0.1 μg/day s.c. alone, 32 days): 136%
effect on mouse weight (T-47D tumors; mouse, in vivo): no effect
increase in uterine weight compared to OVX-CTR (times) [7]: 2.5
uterine weight [7]: 55 mg
